The values below come from US20050080247A1, “Leinamycin biosynthesis gene cluster and its components and their uses” (priority 2001, published 2005).

Where two headings read alike, the source gives them in different places. Bounds are passed on as bounds.

One data set has as its system S. atroolivaceus. In words: Antibiotic sensitivity (growth inhibition) of S. atroolivaceus. The conditions noted are these: for complete inhibition of growth: concentration giving complete inhibition of growth of S. atroolivaceus; for sensitivity of S. atroolivaceus: result in words. The data set is classed as cell-based, Streptomyces atroolivaceus. The method, then: S. atroolivaceus grows very well at 30° C.; it doesn't grow at temperature beyond 35° C. […] Thus, E. coli-Streptornyces shuttle vectors pOJ260 (suicide vector, Am^R) and pKC1139 (self-replicating vector, Am^R) were chosen to make the gene-disruption constructs pYC12 and pYC20, respectively. The concentration of antibiotic (Am) for selection of transformants/exconjugates is 50 μg/ml.

The subject of another data set is DNA. The conditions noted are these: in the presence of thiol agents as cofactors; cited from earlier work.
Data set [1] relates to murine tumor models (HeLa S3, sarcoma180, B-16, Colon 26, leukemia P388). As to conditions: cited from earlier work.
For data set [2] the following is noted: cited from earlier work; for t1/2: aqueous condition.
The subject of data set [3] is Gram-positive and Gram-negative bacteria. The conditions noted are these: cited from earlier work.
The next data set deals with fungi. As to conditions: cited from earlier work.

For `CN[C@@H]1[C@@H](O[C@H]2O[C@H](CO)[C@@H](N)[C@H](O)[C@H]2O)OC2C[C@@H](N)[C@@H](O[C@H]3[C@H](O)[C@@H](O)[C@H](N)C[C@@H]3N)OC2[C@@H]1O` (stereo partly shown) [apramycin], in the data set with S. atroolivaceus, the “complete inhibition of growth” value turned out to be 10 µg/mL and the “sensitivity of S. atroolivaceus” value is recorded as “sensitive”.

As for `C/C1=C\[C@@H](O)C(=O)/C=C/C=C\c2csc(n2)[C@@H](C)NC(=O)C[C@@]2(CC1)[S+]([O-])SC(=O)[C@]2(C)O` (stereo partly shown) [Lnm, Leinamycin], in the data set on DNA, the DNA cleavage entry is recorded as “single-strand scission of DNA”. For the same compound, the “activity against drug-resistant tumors” value in data set [1] (murine models inoculated with tumors resistant to cisplatin, doxorubicin, mitomycin or cyclophosphamide) was “active”. For the same compound, the antitumor activity entry in data set [1] (murine tumor models in vivo, including HeLa S3, sarcoma180, B-16, Colon 26, leukemia P388) is given as “potent antitumor activity”. Also, the t1/2 in data set [2] (pH 6) is above 20 h; in data set [2] (pH 7), 8 h; in data set [2] (pH 8), below 1 h. For the same compound, in data set [2] (in the presence of a thiol, compared with aqueous condition alone), the “t1/2 in the presence of a thiol” value was “even shorter t1/2”. Besides, the antimicrobial activity entry in data set [3] is recorded as “broad spectrum of antimicrobial activity”; in the data set with fungi it was “not against fungi”.

For `C=C(NC(=O)C(=C)NC(=O)c1csc(C2=N[C@@H]3c4csc(n4)[C@H]4NC(=O)c5csc(n5)[C@H]([C@](C)(O)[C@@H](C)O)NC(=O)[C@H]5CSC(=N5)/C(=C/C)NC(=O)[C@H]([C@@H](C)O)NC(=O)c5csc(n5)[C@]3(CC2)NC(=O)[C@H](C)NC(=O)C(=C)NC(=O)[C@H](C)NC(=O)[C@H]([C@@H](C)CC)N[C@@H]2C=Cc3c([C@H](C)O)cc(nc3[C@H]2O)C(=O)O[C@@H]4C)n1)C(N)=O` [thiostrepton], in the data set with S. atroolivaceus, the “complete inhibition of growth” value worked out at 3 µg/mL and the “sensitivity of S. atroolivaceus” value was “sensitive”.
